Source: patent publication US6469120B1, “Water-stabilized organosilane compounds and methods for using the same” (BioShield Technologies, Inc., priority 1997, dated 2002)

Experiments:
[1] = no stabilizer; cited from earlier work
[2] = Stabilization of aqueous Dow Corning 5772 siloxane solutions by polyols, clarity monitored over time; type: physicochemical
Protocol: However, those skilled in the art will recognize that for practicality and commercial applications, the longer the period for which a stable composition can be achieved the better. Accordingly, a stock of solutions of known concentrations of the stabilizer is prepared in deionized water. A known amount of the solution, and in some cases additional deionized water and the siloxane were mixed in a vial. The vial was sealed with parafilm to prevent evaporation, and stored at ambient temperature.

[3] = 5% siloxane solution with 0.94% to 19% polyol, ambient temperature

In the case of `CCCCCCCCCCCCCCCCCC[N+](C)(C)CCC[Si](OC)(OC)OC.[Cl-]` [3-(trimethoxysilyl)propyl-dimethyloctadecyl ammonium chloride], the “time until mixture with water begins to lose effectiveness” value [1] is listed as “four to eight”.

In the case of `O=C1O[C@H]([C@@H](O)CO)C(O)=C1O` [L-ascorbic acid], the “time solution remained clear” value ([2]; 10% siloxane solution with 0.85% to 17% L-ascorbic acid) was “at least five” and the “clarity of solution after two days” value ([2]; as much as 18% siloxane with as little as 0.79% L-ascorbic acid) was “remained clear”.

In the case of `O=CC=O` [glyoxal], the “time solution remained clear” value ([2]; 9% siloxane with 4.1% to 18% glyoxal, aqueous) was “at least three”.

For `OC[C@@H](O)[C@@H](O)[C@H](O)[C@H](O)CO` [mannitol], the “time solution remained clear” value [2, 3] was “seven” and the “solubility of polyol in the siloxane solution” value ([2]; high mannitol concentration, 5% siloxane solution) was “not completely soluble”.

In the case of `OC[C@H]1O[C@@](CO)(O[C@H]2O[C@H](CO)[C@@H](O)[C@H](O)[C@H]2O)[C@@H](O)[C@@H]1O` [sucrose], the “time solution remained clear” value [2, 3] was “at least seven” and the “time solution remained clear” value ([2]; another sample at approximately 5% active siloxane) was “at least eight”.

With `O=C(OC[C@H]1O[C@@H](OC(=O)c2cc(O)c(O)c(OC(=O)c3cc(O)c(O)c(O)c3)c2)[C@H](OC(=O)c2cc(O)c(O)c(OC(=O)c3cc(O)c(O)c(O)c3)c2)[C@@H](OC(=O)c2cc(O)c(O)c(OC(=O)c3cc(O)c(O)c(O)c3)c2)[C@@H]1OC(=O)c1cc(O)c(O)c(OC(=O)c2cc(O)c(O)c(O)c2)c1)c1cc(O)c(O)c(OC(=O)c2cc(O)c(O)c(O)c2)c1` [tannic acid] the “stabilization of siloxane solution” value ([2]; tannic acid siloxane solution) was “not stabilized to any significant degree”.
